Measurements reported in paper PMC7756583, “Hydroxamic Acids Immobilized on Resins (HAIRs): Synthesis of Dual‐Targeting HDAC Inhibitors and HDAC Degraders (PROTACs)” (Angewandte Chemie (International Ed. in English), 2020).
Like-named read-outs stand apart in the source and are kept apart here.

Columns and labels:
[1] = test system: human tongue squamous cell carcinoma cell line Cal27; experiment: MTT cell viability assay, Cal27; assay type: cell-based; settings: Homo sapiens, read-out: Antiproliferative Effect IC50 Cal27
[2] = test system: human primary glioblastoma cell line U251; experiment: MTT cell viability assay, U251; assay type: cell-based; settings: for IC50: Homo sapiens, read-out: Antiproliferative Effect IC50 U251
[3] = test system: human primary glioblastoma cell line U87; experiment: MTT cell viability assay, U87; assay type: cell-based; settings: 72 h, read-out: Antiproliferative Effect IC50 U87
[4] = molecular target: HDAC1 (Homo sapiens, UniProt Q13547); experiment: In-vitro human HDAC1 fluorogenic inhibition assay (ZMAL substrate); assay type: biochemical
[5] = molecular target: T1, HDAC6 (Homo sapiens, UniProt Q9UBN7); experiment: In-vitro human HDAC6 fluorogenic inhibition assay (ZMAL substrate); assay type: biochemical
T1 sequence (Q9UBN7 1-1215): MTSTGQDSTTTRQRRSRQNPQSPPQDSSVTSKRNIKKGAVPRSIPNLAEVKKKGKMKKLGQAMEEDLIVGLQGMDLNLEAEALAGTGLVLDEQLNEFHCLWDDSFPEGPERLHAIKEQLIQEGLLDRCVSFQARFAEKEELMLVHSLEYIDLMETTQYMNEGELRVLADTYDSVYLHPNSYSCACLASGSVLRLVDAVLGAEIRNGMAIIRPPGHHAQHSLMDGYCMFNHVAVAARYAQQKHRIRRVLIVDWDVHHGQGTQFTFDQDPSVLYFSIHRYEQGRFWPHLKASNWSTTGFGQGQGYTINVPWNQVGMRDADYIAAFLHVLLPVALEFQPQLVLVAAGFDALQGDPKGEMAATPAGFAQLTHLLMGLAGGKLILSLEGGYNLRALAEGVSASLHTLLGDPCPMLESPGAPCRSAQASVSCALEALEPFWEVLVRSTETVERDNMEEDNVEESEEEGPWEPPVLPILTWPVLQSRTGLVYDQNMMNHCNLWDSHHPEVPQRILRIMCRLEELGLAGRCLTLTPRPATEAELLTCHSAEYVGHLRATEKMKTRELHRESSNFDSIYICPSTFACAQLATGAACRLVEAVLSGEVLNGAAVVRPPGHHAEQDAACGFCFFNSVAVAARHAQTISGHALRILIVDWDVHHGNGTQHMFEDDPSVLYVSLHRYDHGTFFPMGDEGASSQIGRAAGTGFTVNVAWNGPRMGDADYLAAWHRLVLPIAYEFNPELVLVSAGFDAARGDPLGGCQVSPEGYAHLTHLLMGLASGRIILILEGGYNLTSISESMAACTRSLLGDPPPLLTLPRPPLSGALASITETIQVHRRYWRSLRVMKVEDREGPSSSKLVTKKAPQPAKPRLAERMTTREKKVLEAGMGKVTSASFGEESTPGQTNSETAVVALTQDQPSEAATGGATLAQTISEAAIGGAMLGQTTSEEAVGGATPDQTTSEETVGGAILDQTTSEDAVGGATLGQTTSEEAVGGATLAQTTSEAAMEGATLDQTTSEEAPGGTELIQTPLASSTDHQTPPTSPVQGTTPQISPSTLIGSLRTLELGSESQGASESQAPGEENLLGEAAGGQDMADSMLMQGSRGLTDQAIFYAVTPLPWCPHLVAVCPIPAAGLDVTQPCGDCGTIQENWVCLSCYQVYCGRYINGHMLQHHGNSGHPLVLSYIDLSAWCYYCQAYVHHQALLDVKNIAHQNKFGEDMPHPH

[6] = CAL-27, MTT assay, 72 h, n≥3, each in triplicate wells
[7] = fluorogenic assay, n≥2, each in duplicate wells, read-out: Target Inhibition IC50 HDAC1
[8] = U-251, MTT assay, 72 h, n≥3, each in triplicate wells, n.e.: no effect up to 100 μM
[9] = MTT assay, n≥3, each in triplicate wells
[10] = fluorogenic assay, n≥2, each in duplicate wells, read-out: Target Inhibition IC50 HDAC6

HDAC1, sequence (Q13547 whole entry): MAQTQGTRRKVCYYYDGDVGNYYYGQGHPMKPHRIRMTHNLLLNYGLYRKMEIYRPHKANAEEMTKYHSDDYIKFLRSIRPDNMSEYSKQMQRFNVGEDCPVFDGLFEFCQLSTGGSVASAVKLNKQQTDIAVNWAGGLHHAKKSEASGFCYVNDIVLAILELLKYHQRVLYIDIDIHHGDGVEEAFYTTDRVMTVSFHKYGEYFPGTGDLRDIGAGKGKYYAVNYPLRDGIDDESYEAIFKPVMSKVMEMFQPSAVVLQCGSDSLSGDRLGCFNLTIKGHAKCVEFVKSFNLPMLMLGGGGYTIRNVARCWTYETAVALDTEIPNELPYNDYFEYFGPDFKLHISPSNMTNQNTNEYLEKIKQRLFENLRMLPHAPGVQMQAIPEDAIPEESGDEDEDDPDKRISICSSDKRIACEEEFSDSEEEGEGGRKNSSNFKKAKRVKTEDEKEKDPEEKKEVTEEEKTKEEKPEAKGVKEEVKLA

| IC50 [1, 6] [µM] | IC50 [4, 7] [µM] | IC50 [2, 8] [µM] | IC50 [3, 9] [µM] | IC50 [5, 10] [µM] | Antiproliferative Effect IC50 U251 ([2]; MTT assay, 72 h, n≥3, each in triplicate wells, n.e.: no effect up to 100 μM) | SMILES | IC50 ([1]; CAL-27, 72 h) [µM] | IC50 ([2]; U-251, 72 h) [µM] | IC50 [3] [µM] | IC50 [4] [µM] | IC50 [5] [µM] |
| --- | --- | --- | --- | --- | --- | --- | --- | --- | --- | --- | --- |
| 16.8 ± 3.62 | 0.394 ± 0.02 | 44.5 ± 8.94 | 147 ± 19.7 | 0.023 ± 0.002 |  | O=C(NO)c1ccc(CNC(=O)c2ncn3c(=O)n(CCCl)nnc23)cc1 [Compound 3 b] |  |  |  |  |  |
| 97.1 ± 16.3 | 35.1 ± 5.32 |  | 323 ± 107 | 4.99 ± 0.129 | n.e. | Cn1nnc2c(C(=O)NCCCC(=O)NO)ncn2c1=O [Compound 3 d] |  |  |  |  |  |
| 87.8 ± 9.52 | 16.2 ± 0.07 | 461 ± 89.9 | 413 ± 77.7 | 2.37 ± 0.086 |  | O=C(CCCNC(=O)c1ncn2c(=O)n(CCCl)nnc12)NO [Compound 3 e] |  |  |  |  |  |
| 29 ± 3.73 | 0.681 ± 0.015 | 140 ± 17.8 | 262 ± 75.6 | 0.094 ± 0.002 |  | O=C(CCCCCNC(=O)c1ncn2c(=O)n(CCCl)nnc12)NO [Compound 3 g] |  |  |  |  |  |
| 10.2 ± 1.54 | 0.161 ± 0.006 | 86.2 ± 13.1 | 166 ± 33.6 | 0.031 ± 0.002 |  | Cn1nnc2c(C(=O)NCCCCCCC(=O)NO)ncn2c1=O [Compound 3 i] |  |  |  |  |  |

Further lines, the compound ahead of its results:

| SMILES | IC50 [1, 6] [µM] | IC50 [4, 7] [µM] | IC50 [2, 8] [µM] | IC50 [3, 9] [µM] | IC50 [5, 10] [µM] | Antiproliferative Effect IC50 U251 ([2]; MTT assay, 72 h, n≥3, each in triplicate wells, n.e.: no effect up to 100 μM) | IC50 ([1]; CAL-27, 72 h) [µM] | IC50 ([2]; U-251, 72 h) [µM] | IC50 [3] [µM] | IC50 [4] [µM] | IC50 [5] [µM] |
| --- | --- | --- | --- | --- | --- | --- | --- | --- | --- | --- | --- |
| O=C(O)CCCc1ccc(N(CCCl)CCCl)cc1 [CAB, chlorambucil, reference compound] |  |  |  |  |  |  | 23.7 ± 2.26 | 48.7 ± 11.9 | 86.3 ± 17.5 |  |  |
| O=C(CCCc1ccc(N(CCCl)CCCl)cc1)NCc1ccc(C(=O)NO)cc1 [Compound 3 c] |  |  |  |  |  |  | 6.89 ± 1.04 | 22 ± 3.09 | 23.9 ± 3.41 | 0.518 ± 0.065 | 0.032 ± 0.003 |
| O=C(CCCNC(=O)CCCc1ccc(N(CCCl)CCCl)cc1)NO [Compound 3 f] |  |  |  |  |  |  | 8.67 ± 1.31 | 20.1 ± 2.41 | 46.1 ± 5.71 | 8.21 ± 0.183 | 4.6 ± 0.082 |
| O=C(CCCCCNC(=O)CCCc1ccc(N(CCCl)CCCl)cc1)NO [Compound 3 h] |  |  |  |  |  |  | 7.5 ± 0.62 | 25.1 ± 3.27 | 43.9 ± 15.3 | 0.444 ± 0.053 | 0.121 ± 0.008 |
